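Following 48 hours of exposure in 96-well plates, responses at five concentrations were used to interpolate endpoints linearly. At the GI50, growth is halved. TGI marks complete inhibition of growth.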
Experiments:
Assay in all cases: NCI-60 cell line screen, 48 h
BT-549 breast = system: BT-549 breast
SNB-19 CNS = system: SNB-19 CNS
RXF 393 renal = system: RXF 393 renal
A498 renal = system: A498 renal
EKVX NSCLC = system: EKVX NSCLC
NCI-H522 lung = system: NCI-H522 lung
K-562 leukemia = system: K-562 leukemia
UO-31 renal = system: UO-31 renal
OVCAR-3 ovarian = system: OVCAR-3 ovarian
ACHN renal = system: ACHN renal

Row | Structure (SMILES) | GI50 (BT-549 breast) | TGI (BT-549 breast) | GI50 (SNB-19 CNS) | TGI (SNB-19 CNS) | GI50 (RXF 393 renal) | TGI (RXF 393 renal) | GI50 (A498 renal) | TGI (A498 renal) | GI50 (EKVX NSCLC) | TGI (EKVX NSCLC) | GI50 (NCI-H522 lung) | TGI (NCI-H522 lung) | GI50 (K-562 leukemia) | TGI (K-562 leukemia) | GI50 (UO-31 renal) | TGI (UO-31 renal) | GI50 (OVCAR-3 ovarian) | TGI (OVCAR-3 ovarian) | GI50 (ACHN renal) | TGI (ACHN renal)
1 | COC(=O)c1c2c(c(C)[n+]([O-])c1C)C(=O)C=C(NCc1ccc(F)cc1)C2=O | 1.3 µM | 2.63 µM | 1.38 µM | 2.83 µM | 1.43 µM | 2.93 µM | 1.26 µM | 2.56 µM | 0.963 µM | 2.23 µM | 0.792 µM | 3.2 µM | 0.251 µM | 5.04 µM | 1.24 µM | 2.53 µM | 0.245 µM | 0.744 µM |  | 
2 | O=c1c(F)cn(Cc2ccc(C34CC5CC(CC(C5)C3)C4)c(O)c2)c(=O)n1Cc1ccc(C23CC4CC(CC(C4)C2)C3)c(O)c1 | 13.1 µM | 31.3 µM | 27.5 µM | 57.1 µM | 6.5 µM | > 100 µM | 14.2 µM | 27.5 µM | 15.8 µM | 34.8 µM | 15.9 µM | 32.9 µM | 5.29 µM | > 100 µM | 17.5 µM | 41.4 µM | 15.3 µM | 29.2 µM | 13.5 µM | 26.3 µM
3 | NS(=O)(=O)c1ccc(N=Nc2c(O)c(C(=O)O)cc3ccccc23)cc1 |  | > 100 µM |  | > 90.3 µM |  | > 100 µM |  | > 100 µM |  | > 100 µM |  | > 100 µM |  | > 100 µM |  | > 100 µM |  | > 100 µM |  | > 100 µM
4 | Cc1nnc(Nc2ccc(NC(=O)Nc3ccc(Cl)cc3)cc2)c2ccccc12 | 2.21 µM | 5.56 µM | 2.77 µM | 8.72 µM | 2.17 µM | 4.13 µM | 3.21 µM | 10.5 µM | 3.47 µM | 17.9 µM | 1.84 µM | 3.88 µM | 2.2 µM | 4.67 µM | 2.14 µM | 6.01 µM | 1.87 µM | 3.99 µM | 1.84 µM | 3.69 µM
5 | O=C(Cc1ccc(F)c(Cl)c1)Nc1cc(C2(C(F)(F)F)CC2)nn1CC1CCCCC1 | 3.41 µM | 14.7 µM | 4.78 µM | > 15 µM | 2.37 µM | 10.1 µM | 1.52 µM | 4.89 µM | 2.55 µM | 12.6 µM | 2.93 µM | 9.67 µM | 4.28 µM | > 15 µM | 2.9 µM | 9.65 µM | 3.81 µM | > 15 µM | 4.22 µM | 13.9 µM
6 | CCn1c(O)c(/C=N/NC(=O)C(C)c2ccc(CC(C)C)cc2)sc1=S (stereo not drawn) | 0.98 µM | 10.3 µM | 0.433 µM | > 41.8 µM | 0.222 µM | 0.654 µM | 0.243 µM | 0.87 µM | 0.596 µM | > 46 µM | 0.277 µM | 5.58 µM | 0.282 µM | > 48.4 µM | 0.483 µM | 16.8 µM | 0.272 µM | 3.97 µM | 0.813 µM | > 38.8 µM
7 | CCC[CH2][Sn]([CH2]CCC)([O]C(=O)c1ccc(OC)c(OC)c1OC)[O][Sn]([CH2]CCC)([CH2]CCC)[O]C(=O)c1ccc(OC)c(OC)c1OC | 0.241 µM | 1.15 µM | 0.285 µM | 0.635 µM | 0.153 µM | 0.38 µM | 0.284 µM | 1.25 µM | 1.39 µM | 2.76 µM | < 0.0108 µM | 0.0392 µM | 0.0416 µM | 1.86 µM | 0.546 µM | 1.18 µM | 0.406 µM | 1.18 µM | 0.259 µM | 0.583 µM
8 | CCOc1ccc(/C=C2\N=C(c3ccc([N+](=O)[O-])cc3)OC2=O)cc1 |  | > 100 µM |  | > 100 µM |  | > 100 µM |  | > 100 µM |  | > 100 µM |  | > 100 µM |  | > 100 µM |  |  |  | > 100 µM |  | > 100 µM
9 | O=C(Nc1cccc(C(F)(F)F)c1)c1ccc(NC2=C(Cl)C(=O)N(Cc3ccc(Cl)cc3Cl)C2=O)cc1 | 2.2 µM | 5.71 µM | 22.8 µM | > 100 µM | 4.76 µM | 28.3 µM | 6.51 µM | 25.9 µM | 20.3 µM | 48.6 µM | 3.34 µM | 10.2 µM | 1.83 µM | 4.49 µM |  |  | 15.3 µM | 30.9 µM | 11.9 µM | 46.1 µM
10 | Cc1nc(Nc2cccnc2)sc1C(=O)/C=C/c1ccc(F)cc1 | 2.83 µM | 8.87 µM | 3.34 µM | 15.9 µM | 3.01 µM | 8.31 µM | 7.61 µM | 42.7 µM | 5.15 µM | > 100 µM | 2.17 µM | 5.11 µM | 2.78 µM | > 100 µM | 2.81 µM | 16.9 µM | 3.14 µM | 12.8 µM |  | 

— PubChem BioAssay (NCI)
